From PMC8324038 (ACS infectious diseases, 2021)
Converted amounts (≈) assume the structure as drawn.

Experiments:
[1] = target: T1, purified PenA1 β-lactamase (Burkholderia multivorans, UniProt A0A0H3KN52); test: Steady-state inhibition kinetics, Ki-app, purified enzyme; format: biochemical; settings: read-out: Km nitrocefin, used for correction of Ki-app
T1 sequence (A0A0H3KN52 28-302): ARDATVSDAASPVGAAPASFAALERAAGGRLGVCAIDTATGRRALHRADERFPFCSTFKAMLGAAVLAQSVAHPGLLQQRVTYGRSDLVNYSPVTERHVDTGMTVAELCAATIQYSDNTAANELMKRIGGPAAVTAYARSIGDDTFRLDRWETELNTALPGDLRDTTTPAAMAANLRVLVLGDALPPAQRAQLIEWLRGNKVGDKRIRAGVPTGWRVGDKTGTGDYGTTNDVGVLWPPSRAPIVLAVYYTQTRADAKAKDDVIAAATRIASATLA

[2] = tested on: E. coli DH10B pBC SK(+) empty; test: MIC susceptibility testing, empty vector control; settings: Escherichia coli
[3] = target: T1, purified PenA1 β-lactamase; test: Acylation rate k2/K; format: biochemical; settings: acylation rate (kinact/KI or k2/K), nitrocefin 100 μM reporter

Row | Compound | k2/K [3] | other results
1 | O=C(Cc1cccs1)N[C@@H]1C(=O)N2C(C(=O)O)=C(/C=C/c3ccc([N+](=O)[O-])cc3[N+](=O)[O-])CS[C@H]12 [nitrocefin] | – | Km [1]: 147 µM
2 | CCN1CCN(C(=O)N[C@@H](C(=O)N[C@@H]2C(=O)N3[C@@H]2SC(C)(C)[C@@H]3C(=O)O)c2ccccc2)C(=O)C1=O [Piperacillin] | – | MIC [2]: 2 µg/mL (≈ 3.86 µM)
3 | Cn1cc[n+](C[C@@]2(C)[C@H](C(=O)[O-])N3C(=O)C[C@H]3S2(=O)=O)n1 [enmetazobactam] | 6.3 ± 2.0 × 10^5 M^−1 s^−1 | –
4 | O=C(O)[C@H]1/C(=C/CO)O[C@@H]2CC(=O)N21 [clavulanic acid] | 340 to 2e+06 M⁻¹ s⁻¹ | –
